Data taken from patent US5547845A (Duke University, priority 1994, dated 1996).
“Also recorded” adds a separate entry of the source. Where two headings read alike, the source gives them in different places. Values belong to the compound of their own block, whether it stands above or below them.

Key:
[1] = target: T1, human D1 dopamine receptor (clone HGL26) (Homo sapiens, UniProt P21728); test: Saturation binding of [^125 I]SCH23982 to membranes of COS-7 cells expressing HGL26; design: a 2.3 kb EcoRI-XbaI restriction fragment containing the open reading frame was subcloned into the expression vector pCMV5; expressed in transfected cells; host or cells: African green monkey kidney COS-7 cells, transient, pCMV5; settings: transfected COS-7 membranes vs antisense construct
Procedure: To identify the protein encoded by genomic clone HGL26, a 2.3 kb EcoRI-XbaI restriction fragment containing the open reading frame was subcloned into the expression vector pCMV5 and transiently transfected into African green monkey kidney (COS-7) cells. See Andersson, S. et al., J. Biol. Chem. 264, 8222-8229 (1989). The DEAE-dextran method was used for transient transfection of COS-7 cells. See Cullen, B. Meth. Enzymol. 152, 684-704 (1987). After 48 hours, transfected cells were lysed and homogenized in ice-cold lysis buffer (10 mM Tris HCl, pH 7.4, 5 mM EDTA). The homogenate was centrifuged at 43,000 g for 30 min at 4° C. The resulting pellet was resuspended in lysis buffer, re-homogenized, and re-centrifuged. This pellet was resuspended in an assay buffer containing 50 mM Tris HCl, pH 7.4, 100 mM NaCl, 5 mM EDTA.
See Sidhu, A. et al., J. Eur. J. Pharmacol. 128, 213-220 (1986).

α1-adrenergic receptor = settings: α1-adrenergic receptor-transfected COS-7 cells; data not shown
[2] = target: T2, human D1 dopamine receptor (clone HGR213-1) (Homo sapiens, UniProt P21728); type: binding; design: expressed in transfected cells; host or cells: monkey kidney COS-7 cells, transient, PBC12BI; settings: FIG. 4 competition curves
[3] = target: T1, human D1 dopamine receptor (clone HGL26); test: Adenylyl cyclase activity in membranes of mouse fibroblasts [L-M(TK^-)] expressing HGL26; type: biochemical; settings: for block of dopamine-stimulated adenylyl cyclase activity: dopamine 100 μM, SCH23390 and raclopride 1 μM each
[4] = target: T1, human D1 dopamine receptor (clone HGL26); test: Competition for [^125 I]SCH23982 binding to membranes of COS-7 cells expressing HGL26; design: a 2.3 kb EcoRI-XbaI restriction fragment containing the open reading frame was subcloned into the expression vector pCMV5; expressed in transfected cells; host or cells: African green monkey kidney COS-7 cells, transient, pCMV5
[5] = target: T2, human D1 dopamine receptor (clone HGR213-1); test: cAMP accumulation in human embryonic kidney 293 cells transfected with HGR213-1
[6] = test system: untransfected COS-7 cells; test: Specific binding of [^3 H]SCH23390 to untransfected COS-7 cells; design: species or system monkey; settings: data not shown
Procedure: Membranes were prepared by homogenizing cells with a ConTorque homogenizer at 4° C. in TEM buffer. The homogenate was centrifuged at 800 g for 10 min and the pellet was subjected to a second homogenization and centrifugation. Supernatants were pooled and centrifuged at 100,000 g for 1 h. The pellet was then resuspended in TEM buffer at appropriate protein concentration and stored in small aliquots at -70° C. […] Binding was initiated by the addition of membrane preparation (20-30 μg protein) and carried on at 30° C. for 1 h. Nonspecific binding was defined in the presence of 10 μM (+)Butaclamol. The samples were filtered through glass fiber filters (Schleicher and Schuell No.32) and washed three times with 4 ml ice-cold 10 mM Tris pH 7.4. The radioactivity retained on the filter was counted using a Beckman LS6800 scintillation counter. […] See J. Bunzow et al., Nature 336,783 (1988). […] A LIGAND computer program was used for data analysis and curve fitting.

[7] = ~0.3 nM [^125 I]SCH23982, 1 hr, room temperature, means of 2-5 independent determinations, one-site model, read-out: Kd (apparent equilibrium dissociation constant) for [^125 I]SCH23982 binding sites

T1 sequence (P21728 whole entry, the tested form may be a part): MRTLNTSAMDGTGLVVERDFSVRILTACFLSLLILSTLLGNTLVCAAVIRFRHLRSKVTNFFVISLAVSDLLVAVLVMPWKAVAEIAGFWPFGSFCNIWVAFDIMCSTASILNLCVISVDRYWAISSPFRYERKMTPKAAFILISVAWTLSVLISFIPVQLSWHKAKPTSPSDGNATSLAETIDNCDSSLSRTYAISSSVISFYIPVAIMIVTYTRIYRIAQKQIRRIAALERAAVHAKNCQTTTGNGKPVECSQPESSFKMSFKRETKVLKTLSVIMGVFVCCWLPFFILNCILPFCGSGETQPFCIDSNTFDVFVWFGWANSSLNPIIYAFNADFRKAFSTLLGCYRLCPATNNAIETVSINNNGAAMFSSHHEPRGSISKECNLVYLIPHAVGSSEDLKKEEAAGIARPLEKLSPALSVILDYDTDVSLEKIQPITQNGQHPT
T2 sequence (P21728 whole entry): as the sequence (P21728 whole entry, the tested form may be a part) above

increase in specific binding compared to cells transfected with an antisense construct [1]: 10- to 30 fold
Compound: CN1CCc2cc([125I])c(O)cc2[C@@H](c2ccccc2)C1 [[^125 I]SCH23982]

Compound: CNC[C@H](O)c1ccc(O)c(O)c1 [epinephrine]
stimulation of phosphatidylinositol (PI) metabolism (α1-adrenergic receptor): potently evoked this response

potency in competition with [^3 H]SCH23390 (in words) [2]: most potent
Compound: Oc1ccc(C2CNCCc3c2cc(O)c(O)c3Cl)cc1 (stereo not drawn) [SKF82526]

block of dopamine-stimulated adenylyl cyclase activity [3]: not by the D2 antagonist raclopride
Kd [4, 7]: > 72000 nM
Compound: CCN1CCC[C@H]1CNC(=O)c1c(O)c(Cl)cc(Cl)c1OC (racemic) [raclopride]

block of dopamine-stimulated adenylyl cyclase activity [3]: blocked
antagonism of agonist-stimulated cAMP production [5]: blocked; also recorded: antagonized
potency in competition with [^3 H]SCH23390 (in words) [2]: most potent
Compound: CN1CCc2cc(Cl)c(O)cc2[C@@H](c2ccccc2)C1 [SCH23390]
rank order of ligand potency [2]: SCH23390<(+)Butaclamol>Flupenthixol>>Haloperidol

Kd [4, 7]: 0.2 nM
Compound: OCCC1CCN(CC/C=C2/c3ccc(F)cc3Sc3ccc(C(F)(F)F)cc32)CC1 [cis-piflutixol]

Compound: C=CCc1ccccc1OCC(O)CNC(C)C (stereo not drawn) [alprenolol]
Kd [4]: 16000 nM

Compound: O=C(CCCN1CCC2(CC1)C(=O)NCN2c1ccccc1)c1ccc(F)cc1 [spiperone]
Kd [4]: 220 nM

Compound: OCCN1CCN(CC/C=C2/c3ccccc3Sc3ccc(C(F)(F)F)cc32)CC1 [cis-flupenthixol]
rank order of ligand potency [2]: SCH23390<(+)Butaclamol>Flupenthixol>>Haloperidol

stimulation of adenylyl cyclase activity (in words) ([3]; SKF38393 and quinpirole, 1 μM each): also stimulated enzyme activity
Compound: Oc1cc2c(cc1O)C(c1ccccc1)CNCC2 (stereo not drawn) [SKF38393]

Compound: CN1CCc2cc(Cl)c(O)cc2C(c2ccccc2)C1 (stereo not drawn) [[^3 H]SCH23390]
specific binding to untransfected cells [6]: no specific binding
